Reference: ChEMBL document CHEMBL1201862, “PubChem BioAssay data set” (2004)
Activity calls are given as the source filed them.

Tests used:
HEK293 [1] = assay: inhibition of NOD1-driven NF-kB reporter – cell-based, luminescence, uHTS, primary screen (AID 1578); assay type: functional; conditions: Homo sapiens
HEK293 [2] = assay: cells; assay type: functional, cell-based; conditions: Homo sapiens
HEK293 [3] = assay: cells; assay type: functional, cell-based; conditions: Homo sapiens; remark: listed apart in the source
HEK293 [4] = assay: NOD2 signaling inhibitors in MDP-stimulated cells, cell-based, uHTS, luminescence (AID 2001); assay type: functional; conditions: Homo sapiens
Tumor necrosis factor = Tumor necrosis factor (Homo sapiens, UniProt P01375); assay: analog potency on TNFa NF-kB signaling – cell-based, revised, SAR follow-up (AID 2337); assay type: functional
[5] = target: T1, Nucleotide-binding oligomerization domain-containing protein 1 (Homo sapiens, UniProt Q9Y239); assay: blockers of NOD1 pathway activity – revised, SAR follow-up (AID 2333); assay type: functional
T1 sequence (Q9Y239 whole entry): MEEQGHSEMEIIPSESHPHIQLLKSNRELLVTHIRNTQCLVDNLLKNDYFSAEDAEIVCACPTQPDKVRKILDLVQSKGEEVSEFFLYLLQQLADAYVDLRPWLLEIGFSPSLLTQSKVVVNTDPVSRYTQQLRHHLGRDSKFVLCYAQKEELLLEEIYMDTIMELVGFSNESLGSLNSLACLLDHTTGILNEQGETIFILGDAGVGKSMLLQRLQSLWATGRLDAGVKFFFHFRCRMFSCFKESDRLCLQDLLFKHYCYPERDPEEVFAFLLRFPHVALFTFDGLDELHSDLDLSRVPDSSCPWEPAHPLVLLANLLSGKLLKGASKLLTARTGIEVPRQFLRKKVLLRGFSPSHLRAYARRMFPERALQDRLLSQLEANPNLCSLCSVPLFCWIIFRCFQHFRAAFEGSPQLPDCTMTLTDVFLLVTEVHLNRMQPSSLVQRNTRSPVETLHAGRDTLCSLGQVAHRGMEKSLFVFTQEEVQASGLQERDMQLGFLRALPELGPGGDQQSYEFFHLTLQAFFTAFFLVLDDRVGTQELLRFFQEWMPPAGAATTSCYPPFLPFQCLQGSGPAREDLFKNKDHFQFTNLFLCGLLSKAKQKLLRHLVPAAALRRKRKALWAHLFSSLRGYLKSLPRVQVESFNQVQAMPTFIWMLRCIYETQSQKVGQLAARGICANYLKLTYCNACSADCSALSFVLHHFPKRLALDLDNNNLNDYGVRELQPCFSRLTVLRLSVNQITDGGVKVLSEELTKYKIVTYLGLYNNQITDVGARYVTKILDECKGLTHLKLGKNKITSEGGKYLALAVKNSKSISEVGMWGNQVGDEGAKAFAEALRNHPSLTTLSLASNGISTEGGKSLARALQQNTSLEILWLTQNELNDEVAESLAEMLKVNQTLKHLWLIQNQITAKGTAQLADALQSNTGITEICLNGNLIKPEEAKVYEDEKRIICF

HEK293 [6] = assay: cells; conditions: Homo sapiens
[7] = Trypanosoma cruzi growth suppression in host cells – NIH3T3 host cells, beta-gal luminescence, confirmation (AID 2044); assay type: functional, cell-based;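 further: intracellular parasites grown in NIH/3T3 mouse fibroblasts as host cells; luminescent beta-galactosidase reporter signal from transgenic T. cruzi replicating inside host cells; inhibitors lower the luminescence signal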
[8] = NIH3T3 cell viability loss – ATP luminescence, mouse fibroblasts, counter-screen, dose response (AID 2010); assay type: functional, cell-based;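 further: cells exposed to compound for about 90 hours before reading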
[9] = target: T2, Short transient receptor potential channel 4 (Mus musculus, UniProt Q9QUQ5); assay: block of DAMGO-driven TRPC4 calcium entry – cell-based, HEK293 TRPC4/mu-opioid, Fluo-4 calcium, dose response (AID 434942); assay type: functional;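 further: potency of inhibitors blocking the TRPC4 calcium response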
T2 sequence (Q9QUQ5 whole entry): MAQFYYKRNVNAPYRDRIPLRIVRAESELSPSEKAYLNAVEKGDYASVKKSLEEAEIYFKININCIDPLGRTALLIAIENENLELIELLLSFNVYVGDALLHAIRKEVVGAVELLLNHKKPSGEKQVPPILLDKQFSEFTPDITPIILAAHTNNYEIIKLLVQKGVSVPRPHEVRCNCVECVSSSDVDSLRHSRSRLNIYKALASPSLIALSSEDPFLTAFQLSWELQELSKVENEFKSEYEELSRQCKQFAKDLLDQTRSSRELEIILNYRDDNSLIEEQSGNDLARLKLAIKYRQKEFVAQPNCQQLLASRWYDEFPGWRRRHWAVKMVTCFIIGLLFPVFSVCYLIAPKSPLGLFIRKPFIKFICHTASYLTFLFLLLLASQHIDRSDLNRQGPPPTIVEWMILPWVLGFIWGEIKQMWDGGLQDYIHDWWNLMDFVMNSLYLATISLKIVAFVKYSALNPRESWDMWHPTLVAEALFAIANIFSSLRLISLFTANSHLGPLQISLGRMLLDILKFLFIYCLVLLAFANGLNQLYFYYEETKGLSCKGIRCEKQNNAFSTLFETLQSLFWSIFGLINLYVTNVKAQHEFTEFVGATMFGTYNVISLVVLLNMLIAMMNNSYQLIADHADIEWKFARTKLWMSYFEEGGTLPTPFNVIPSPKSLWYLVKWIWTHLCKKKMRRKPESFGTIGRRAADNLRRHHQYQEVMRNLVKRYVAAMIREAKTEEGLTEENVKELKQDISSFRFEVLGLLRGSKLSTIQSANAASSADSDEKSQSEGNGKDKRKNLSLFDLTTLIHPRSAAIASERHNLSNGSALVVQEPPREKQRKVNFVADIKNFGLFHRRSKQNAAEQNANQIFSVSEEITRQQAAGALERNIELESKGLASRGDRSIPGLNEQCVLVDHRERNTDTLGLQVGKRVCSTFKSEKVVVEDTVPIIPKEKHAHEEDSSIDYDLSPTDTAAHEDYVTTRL

[10] = target: T3, COUP transcription factor 2 (Homo sapiens, UniProt P24468); assay: Luminescence-based cell-based high throughput dose response assay to identify inhibitors of COUP-TFII (NR2F2).; assay type: functional;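 further: HEK293 cells transiently cotransfected with COUP-TFII expression vector and reporter; luciferase reporter luminescence driven by COUP-TFII from the pX2-168 reporter plasmid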
T3 sequence (P24468 whole entry): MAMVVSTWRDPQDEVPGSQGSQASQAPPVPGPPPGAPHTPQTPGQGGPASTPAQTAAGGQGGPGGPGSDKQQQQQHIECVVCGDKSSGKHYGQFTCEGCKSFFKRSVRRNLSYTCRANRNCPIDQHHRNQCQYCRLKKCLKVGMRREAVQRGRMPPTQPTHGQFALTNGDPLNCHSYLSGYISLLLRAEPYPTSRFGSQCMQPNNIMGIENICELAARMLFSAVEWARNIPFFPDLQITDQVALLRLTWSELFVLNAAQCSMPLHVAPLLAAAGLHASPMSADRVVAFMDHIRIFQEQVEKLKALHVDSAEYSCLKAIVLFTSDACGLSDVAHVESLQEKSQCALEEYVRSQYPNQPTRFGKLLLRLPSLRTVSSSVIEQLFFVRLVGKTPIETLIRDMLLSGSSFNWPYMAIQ

Cytochrome P450 2D6 = Cytochrome P450 2D6 (Homo sapiens, UniProt P10635);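 further: CYP2D6 member of a cytochrome P450 panel assay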
Vero [11] = assay: cells; assay type: functional, cell-based; conditions: Chlorocebus sabaeus
Vero [12] = assay: cells; assay type: functional; conditions: Chlorocebus sabaeus
Cytochrome P450 1A2 = target: T4, Cytochrome P450 1A2 (Homo sapiens, UniProt P05177);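 further: PubChem cytochrome P450 panel assay, CYP1A2 panel member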
T4 sequence (P05177 whole entry): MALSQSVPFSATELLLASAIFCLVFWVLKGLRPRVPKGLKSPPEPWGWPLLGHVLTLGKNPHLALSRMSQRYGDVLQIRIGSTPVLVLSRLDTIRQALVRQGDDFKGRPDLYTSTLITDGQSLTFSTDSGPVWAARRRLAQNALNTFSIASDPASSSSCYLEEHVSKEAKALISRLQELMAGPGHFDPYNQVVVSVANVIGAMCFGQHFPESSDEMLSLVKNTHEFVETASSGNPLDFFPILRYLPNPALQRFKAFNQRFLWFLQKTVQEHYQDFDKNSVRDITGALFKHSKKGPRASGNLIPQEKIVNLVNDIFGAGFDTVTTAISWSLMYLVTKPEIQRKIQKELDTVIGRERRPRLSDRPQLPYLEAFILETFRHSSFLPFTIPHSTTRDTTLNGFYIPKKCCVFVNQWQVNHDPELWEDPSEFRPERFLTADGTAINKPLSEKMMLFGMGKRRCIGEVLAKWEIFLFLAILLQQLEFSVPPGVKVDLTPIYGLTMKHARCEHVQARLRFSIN

Cytochrome P450 2C9 = Cytochrome P450 2C9 (Homo sapiens, UniProt P11712)
[13] = viability of uninfected HEp-2 cells – cell-based, HTS, cytotoxicity control for RSV inhibitor project, dose response (AID 2410); assay type: functional; conditions: human respiratory syncytial virus
Trypsin = Trypsin (Sus scrofa, UniProt P00761); assay: trypsin protease activity blockade – biochemical, quenched peptide fluorescence, cherry-pick, selectivity assay for Rce1 protease inhibitor project, dose response (AID 488789)
CAAX prenyl protease 1 = target: T5, CAAX prenyl protease 1 (Saccharomyces cerevisiae S288c, UniProt P47154); assay: yeast CAAX protease Ste24 inhibition – biochemical, S. cerevisiae, plate reader, cherry-pick, dose response (AID 488815)
T5 sequence (P47154 whole entry): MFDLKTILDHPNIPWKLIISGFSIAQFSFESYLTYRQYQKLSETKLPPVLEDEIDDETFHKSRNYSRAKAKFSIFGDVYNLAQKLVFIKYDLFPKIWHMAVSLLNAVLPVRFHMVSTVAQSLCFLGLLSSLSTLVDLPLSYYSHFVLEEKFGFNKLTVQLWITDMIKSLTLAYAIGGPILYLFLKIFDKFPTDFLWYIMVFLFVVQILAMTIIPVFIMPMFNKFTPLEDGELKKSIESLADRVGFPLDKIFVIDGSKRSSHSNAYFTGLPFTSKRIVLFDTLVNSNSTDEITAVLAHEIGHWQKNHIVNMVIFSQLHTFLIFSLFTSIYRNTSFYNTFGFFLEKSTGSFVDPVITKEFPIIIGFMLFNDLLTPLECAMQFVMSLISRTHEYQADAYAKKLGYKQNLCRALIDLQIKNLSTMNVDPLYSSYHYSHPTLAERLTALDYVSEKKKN

CAAX prenyl protease 2 = target: T6, CAAX prenyl protease 2 (Homo sapiens, UniProt Q9Y256); assay: inhibition of Ras-converting CAAX protease Rce1 – biochemical, yeast membranes, quenched-peptide fluorescence, cherry-pick, dose response (AID 588849)
T6 sequence (Q9Y256 whole entry): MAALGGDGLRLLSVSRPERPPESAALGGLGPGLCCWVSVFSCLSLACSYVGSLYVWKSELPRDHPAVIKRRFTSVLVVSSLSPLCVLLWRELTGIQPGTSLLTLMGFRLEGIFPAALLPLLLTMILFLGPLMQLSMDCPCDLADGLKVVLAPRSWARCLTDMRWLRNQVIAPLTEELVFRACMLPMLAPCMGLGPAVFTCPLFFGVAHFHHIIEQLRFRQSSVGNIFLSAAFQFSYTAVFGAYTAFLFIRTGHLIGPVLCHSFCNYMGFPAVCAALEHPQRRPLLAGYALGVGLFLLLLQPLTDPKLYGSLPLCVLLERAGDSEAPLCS

[14] = target: SWI/SNF-related matrix-associated actin-dependent regulator of chromatin subfamily A member 2 (Homo sapiens, UniProt P51531); assay: Luminescence-based cell-based high throughput dose response assay to identify activators of the function of SWI/SNF related, matrix associated, actin dependent regulator of chromatin, subfamily a, member 2 (SMARCA2, BRM).; assay type: functional
[15] = Counterscreen for activators of the function of SWI/SNF related, matrix associated, actin dependent regulator of chromatin, subfamily a, member 2 (SMARCA2, BRM): Luminescence-based cell-based high throughput dose response assay to identify non-selective compounds using the VP16 reporter assay.; assay type: functional

Sequence of Cytochrome P450 2D6 (P10635 whole entry): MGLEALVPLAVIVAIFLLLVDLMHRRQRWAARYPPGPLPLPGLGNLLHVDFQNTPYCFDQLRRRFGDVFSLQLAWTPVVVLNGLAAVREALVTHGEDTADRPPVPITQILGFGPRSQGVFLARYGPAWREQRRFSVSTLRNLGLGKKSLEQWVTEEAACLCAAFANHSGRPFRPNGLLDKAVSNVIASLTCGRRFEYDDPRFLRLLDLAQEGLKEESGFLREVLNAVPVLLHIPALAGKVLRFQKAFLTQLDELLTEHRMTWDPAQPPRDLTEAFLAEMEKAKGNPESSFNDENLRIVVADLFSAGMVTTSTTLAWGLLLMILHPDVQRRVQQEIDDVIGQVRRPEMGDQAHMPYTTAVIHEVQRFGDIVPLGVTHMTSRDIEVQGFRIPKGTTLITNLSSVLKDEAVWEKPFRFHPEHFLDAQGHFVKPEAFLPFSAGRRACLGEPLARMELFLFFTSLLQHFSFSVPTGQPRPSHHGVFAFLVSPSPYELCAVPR
Sequence of Cytochrome P450 2C9 (P11712 whole entry): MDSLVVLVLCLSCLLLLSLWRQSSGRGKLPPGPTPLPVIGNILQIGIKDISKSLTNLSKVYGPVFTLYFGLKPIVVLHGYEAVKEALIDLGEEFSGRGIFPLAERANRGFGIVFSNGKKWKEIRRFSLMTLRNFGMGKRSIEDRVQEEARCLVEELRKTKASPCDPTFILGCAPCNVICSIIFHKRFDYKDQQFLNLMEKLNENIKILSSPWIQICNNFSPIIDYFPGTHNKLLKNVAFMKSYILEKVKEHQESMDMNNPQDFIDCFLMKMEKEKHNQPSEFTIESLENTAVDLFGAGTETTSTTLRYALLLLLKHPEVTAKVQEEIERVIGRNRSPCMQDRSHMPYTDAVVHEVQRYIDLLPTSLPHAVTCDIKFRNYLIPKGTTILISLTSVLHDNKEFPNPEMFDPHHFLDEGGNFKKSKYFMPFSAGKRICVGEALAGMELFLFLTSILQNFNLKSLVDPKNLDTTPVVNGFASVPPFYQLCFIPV
Sequence of Trypsin (P00761 whole entry): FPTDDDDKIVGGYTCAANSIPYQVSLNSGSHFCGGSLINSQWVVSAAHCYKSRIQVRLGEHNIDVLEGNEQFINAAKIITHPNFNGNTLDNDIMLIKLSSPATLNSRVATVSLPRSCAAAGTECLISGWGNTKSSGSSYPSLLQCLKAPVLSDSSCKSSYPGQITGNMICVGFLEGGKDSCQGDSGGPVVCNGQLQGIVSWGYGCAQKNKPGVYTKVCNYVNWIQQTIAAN
Sequence of SWI/SNF-related matrix-associated actin-dependent regulator of chromatin subfamily A member 2 (P51531 whole entry): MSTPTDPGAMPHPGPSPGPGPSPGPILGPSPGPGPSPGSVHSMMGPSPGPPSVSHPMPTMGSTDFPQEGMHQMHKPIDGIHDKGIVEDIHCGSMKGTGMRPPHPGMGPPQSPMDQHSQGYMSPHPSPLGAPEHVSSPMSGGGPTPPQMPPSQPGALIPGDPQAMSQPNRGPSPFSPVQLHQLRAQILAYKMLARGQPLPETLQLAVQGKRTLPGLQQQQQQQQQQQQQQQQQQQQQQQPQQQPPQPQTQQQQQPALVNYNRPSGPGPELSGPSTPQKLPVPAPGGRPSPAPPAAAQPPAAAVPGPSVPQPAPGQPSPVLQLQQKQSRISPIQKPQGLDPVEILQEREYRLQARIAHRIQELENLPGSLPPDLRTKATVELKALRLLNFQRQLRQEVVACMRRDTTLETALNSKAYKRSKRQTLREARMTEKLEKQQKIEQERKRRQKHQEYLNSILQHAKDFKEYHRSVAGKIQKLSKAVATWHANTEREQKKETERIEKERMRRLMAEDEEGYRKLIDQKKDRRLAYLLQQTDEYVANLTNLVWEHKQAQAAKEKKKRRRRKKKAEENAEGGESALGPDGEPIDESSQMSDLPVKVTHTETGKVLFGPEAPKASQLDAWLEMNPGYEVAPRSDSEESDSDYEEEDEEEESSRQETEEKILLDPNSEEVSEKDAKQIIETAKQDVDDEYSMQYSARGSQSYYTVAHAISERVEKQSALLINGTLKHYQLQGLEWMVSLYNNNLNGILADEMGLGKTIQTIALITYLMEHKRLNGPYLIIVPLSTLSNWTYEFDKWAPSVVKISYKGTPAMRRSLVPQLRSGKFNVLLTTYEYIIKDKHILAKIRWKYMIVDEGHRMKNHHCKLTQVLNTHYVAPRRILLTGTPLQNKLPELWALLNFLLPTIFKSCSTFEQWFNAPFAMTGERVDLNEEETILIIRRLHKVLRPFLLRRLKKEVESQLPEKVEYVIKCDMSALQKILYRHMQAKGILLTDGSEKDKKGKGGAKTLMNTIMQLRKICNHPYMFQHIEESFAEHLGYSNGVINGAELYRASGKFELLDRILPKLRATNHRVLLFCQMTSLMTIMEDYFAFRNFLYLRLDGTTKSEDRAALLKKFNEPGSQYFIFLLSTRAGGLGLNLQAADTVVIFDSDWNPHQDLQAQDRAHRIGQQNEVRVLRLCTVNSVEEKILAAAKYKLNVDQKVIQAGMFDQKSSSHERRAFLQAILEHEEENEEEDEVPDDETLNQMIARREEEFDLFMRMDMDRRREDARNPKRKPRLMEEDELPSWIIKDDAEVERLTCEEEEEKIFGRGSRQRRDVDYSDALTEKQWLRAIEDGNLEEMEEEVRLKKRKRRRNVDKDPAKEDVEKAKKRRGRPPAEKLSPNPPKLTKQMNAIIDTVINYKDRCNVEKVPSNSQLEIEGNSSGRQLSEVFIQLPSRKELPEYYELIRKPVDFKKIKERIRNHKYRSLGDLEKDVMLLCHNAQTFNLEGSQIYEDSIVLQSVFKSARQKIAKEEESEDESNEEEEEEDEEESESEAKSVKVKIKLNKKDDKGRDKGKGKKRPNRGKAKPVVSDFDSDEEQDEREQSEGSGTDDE
Sequence of Tumor necrosis factor (P01375 whole entry, the tested form may be a part): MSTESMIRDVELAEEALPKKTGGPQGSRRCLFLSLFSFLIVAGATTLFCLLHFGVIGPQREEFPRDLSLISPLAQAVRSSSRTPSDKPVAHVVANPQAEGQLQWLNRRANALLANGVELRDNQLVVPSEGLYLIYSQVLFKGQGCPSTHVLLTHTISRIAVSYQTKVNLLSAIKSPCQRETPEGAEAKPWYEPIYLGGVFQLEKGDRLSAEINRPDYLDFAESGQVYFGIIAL

## Cc1oc(-c2cccc3ccccc23)nc1CN1CCN(c2ncnc3ccccc23)CC1
HEK293 [1]
  EC50: 7.79 µM (active)
HEK293 [2]
  IC50: 4.08 µM (active)
HEK293 [3]
  IC50: 6.63 µM (active)
HEK293 [4]
  IC50: 3.28 µM (active)
Tumor necrosis factor
  IC50: > 20 µM (inactive)
[5]
  IC50: > 20 µM (inactive)
HEK293 [6]
  IC50: > 20 µM (inactive)

## N=c1c2c(n(Cc3ccc(Cl)cc3)c3c1CCC3)CCC2
HEK293 [1]
  EC50: 10.2 µM (active)
HEK293 [2]
  IC50: 11.8 µM (active)
HEK293 [3]
  IC50: > 20 µM (inactive)
HEK293 [4]
  IC50: 15.4 µM (inactive)
[7]
  EC50: 0.443 µM (active)
[8]
  EC50: > 60 µM (not active)
[9]
  EC50: 7.5 µM (active)
[10]
  IC50: 9.25 µM (active)

## COC(=O)C/C=C\[C@@H](C)[C@@H](/C=N\OC[C@@H](O)COCc1ccco1)OC
Cytochrome P450 2D6
  AC50: inconclusive

## COc1cc(C(=O)/C=C/c2cccnc2)ccc1O
Vero [11]
  IC50: > 25 µM (active)
Vero [12]
  CC50: 21.2 µM (active)

## COc1ccc(-n2nnnc2/C=C\Nc2ccccc2C(=O)c2ccccc2)cc1
Cytochrome P450 1A2
  AC50: 22.4 µM (inconclusive)
Cytochrome P450 2D6
  AC50: inconclusive
Cytochrome P450 2C9
  AC50: inconclusive

## CC[C@H]1CN(C)[C@H]2Cc3c([nH]c4ccccc34)C(=O)C[C@H]1[C@H]2C(=O)OC
Cytochrome P450 2D6
  AC50: inconclusive

## NS(=O)(=O)c1ccc(N/N=C/c2cn(-c3ccccc3)nc2-c2cccs2)cc1
[13]
  CC50: 12.2 µM (active)
Trypsin
  AC50: 7.03 µM (active)
CAAX prenyl protease 1
  AC50: 7.44 µM (active)
Vero [12]
  CC50: 11.3 µM (active)
CAAX prenyl protease 2
  AC50: 16.7 µM (active)
[14]
  EC50: > 91.2 µM (inactive)
[15]
  EC50: > 91.2 µM (inactive)
